Laboratory results reported in patent US6929012B2, “Process for the isolation of a major harmful oxidant from cigarette smoke” (Council of Scientific and Industrial Research, priority 2001, dated 2005).

Test system: cs-oxidant-induced albumin oxidation
Test: Protection of cs-oxidant-induced albumin oxidation by chemical agents
Format: biochemical, bovine
Settings: for inhibition of BSA oxidation: concentration ranging between 500 μM and 1 mM
Description: The incubation system contained 1 mg BSA and 50 μl of cs solution or its equivalent amounts obtained at different stages of purification in a final volume of 200 μl of 50 mM potassium phosphate buffer, pH 7.4. The incubation was carried out at 37° C. for 1 hour. Protein carbonyl was measured by reaction with 2,4-dinitrophenyl hydrazine (DNPH) following the method of Levine et al (Methods Enzymol. 186: 464-478, 1990) similar to that done before in our laboratory (Panda et al., Free Radic. Biol. & Med. 27: 1064-1079, 1999). […] To this washed pellet was then added 500 μl of 10 mM DNPH solution in 2M HCl and incubated at 37° C. for 1 h with occasional vortexing. Thereafter, the protein was again precipitated with 500 μl of cold 20% trichloroacetic acid solution and the pellet was first washed with 500 μl of 10% trichloroacetic acid solution followed by three successive washes with 1 ml of a mixture of ethanol: ethyl acetate (1:1, v/v). Finally, the washed precipitate was dissolved in 1 ml of 6M guanidium hydrochloride (pH 2.3) and the absorbance was measured at 390 nm using a double beam Hitachi spectrophotometer model U 3020 against a reagent blank of 2M HCl. The results were expressed as n moles of phenylhydrazones formed per milligram protein using a molar extinction coefficient of 22,000.
The chemical compounds/agents include, besides ascorbic acid, tartaric acid, citric acid, oxalic cid, glutathione, tea extract and individual components of tea (Table. 4).
The incubation system and carbonyl estimation are described in the text.

In the case of `N[C@@H](CCC(=O)N[C@@H](CS)C(=O)NCC(=O)O)C(=O)O` [Glutathione], the “% Protection” value (agent 1 mM) is reported as 37% and the “% Protection” value (agent 1 mM, listed as glutanthione) is reported as “up to 37%”.

For `O=C(O)CC(O)(CC(=O)O)C(=O)O` [Citric acid], the “% Protection” value (agent 500 μM) was 67%, the “% Protection” value (agent 1 mM) was 75% and the “inhibition of BSA oxidation” value was “up to 75%”.

For `O=C1O[C@H]([C@@H](O)CO)C(O)=C1O` [Ascorbic acid], the “% Protection” value (agent 100 μM) was 76% and the “% Protection” value (agent 100 μM, listed as ascorbic acid) was “up to 76%”.

With `NCCCC[C@H](N)C(=O)O` [Lysine] the “% Protection” value (agent 1 mM) was 35% and the “% Protection” value (agent 1 mM, listed as lysine) was “up to 35%”.

`O=C(O)C(O)C(O)C(=O)O` (centres unmarked) [Tartaric acid] was tested, and the “% Protection” value (agent 500 μM) was 67%, the “% Protection” value (agent 1 mM) was 75% and the “inhibition of BSA oxidation” value was “up to 75%”.

`O=C(O)CCC(=O)O` [Succinic acid] was tested, and the “% Protection” value (agent 1 μM (so in the source)) was 60%, the “% Protection” value (agent 1 mM) was 60% and the “% Protection” value (agent 1 mM, listed as succinic acid) was “up to 60%”.

For `N[C@@H](Cc1c[nH]cn1)C(=O)O` [Histidine], the “% Protection” value (agent 1 mM) was 67% and the “% Protection” value (agent 1 mM, listed as histidine) was “up to 67%”.

In the case of `Oc1cc(O)c2c(c1)O[C@H](c1cc(O)c(O)c(O)c1)[C@H](O)C2` [Epigallocatechin], the “% Protection” value (agent 140 μg) is reported as 95% and the “% Protection” value (agent 140 μg, listed as epigallocatechin) is reported as “up to 95%”.

`O=C(O)C(=O)O` [Oxalic acid] was tested, and the “% Protection” value (agent 500 μM) was 53% and the “% Protection” value (agent 500 μM, listed as oxalic acid) was “up to 53%”.

With Catechin the “% Protection” value (agent 750 μg) was 54% and the “% Protection” value (agent 750 μg, listed as catechin) was “up to 54%”.
